Reference: patent publication US12461078B2, “Compounds for use in system suitability testing of inert LC systems and columns” (priority 2020, dated 2025)

Legend:
[1] = Hydrolytic and storage stability of nucleotide analog; assay type: physicochemical
[2] = cited from earlier work

SMILES | resistance to hydrolysis / storage stability [1] | Log P [2]
Nc1ncnc2c1ncn2[C@@H]1O[C@H](COP(=O)(O)CP(=O)(O)O)[C@@H](O)[C@H]1O [AMPcP, Adenosine 5′-(α, β-methylene)diphosphate] | resistant to hydrolysis and be stable for long-term storage and repeat use | −4.8
Nc1ncnc2c1ncn2[C@@H]1O[C@H](COP(=O)(O)OP(=O)(O)OP(=O)(O)O)[C@@H](O)[C@H]1O [ATP, adenosine-5′-triphosphate] |  | −5.5
